Assay results taken from US5672710A, “Sulfides, sulfoxides and sulfones disubstituted with a tetrahydronaphthalenyl, chromanyl, thiochromanyl or tetrahydroquinolinyl and substituted phenyl or heteroaryl group, having retinoid-like biological activity” (priority 1995, dated 1997).

Columns and labels:
RXRγ = target: T1, RXRγ (Mus musculus, UniProt P28705); assay: Ligand binding assay, RXRγ
T1 construct: expressed in transfected cells; host or cells: CV1
T1 sequence (P28705 1-463): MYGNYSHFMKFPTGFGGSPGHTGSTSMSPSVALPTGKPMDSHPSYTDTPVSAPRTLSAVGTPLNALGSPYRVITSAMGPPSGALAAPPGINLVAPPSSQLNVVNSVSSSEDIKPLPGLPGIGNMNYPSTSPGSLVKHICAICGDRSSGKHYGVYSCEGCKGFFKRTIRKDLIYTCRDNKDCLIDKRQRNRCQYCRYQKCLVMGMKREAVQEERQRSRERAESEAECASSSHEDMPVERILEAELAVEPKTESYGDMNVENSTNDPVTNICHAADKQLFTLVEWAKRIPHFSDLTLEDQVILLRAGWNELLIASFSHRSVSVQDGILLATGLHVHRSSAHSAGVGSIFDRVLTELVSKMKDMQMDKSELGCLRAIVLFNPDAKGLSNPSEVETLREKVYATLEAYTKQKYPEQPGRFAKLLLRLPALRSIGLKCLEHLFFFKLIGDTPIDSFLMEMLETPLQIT
From the text: (§1) A holoreceptor transactivation assay and a ligand binding assay which measure the ability of the compounds of the invention to bind to the several retinoid receptor subtypes, respectively, are described in published PCT Application No. WO W093/11755 (particularly on pages 30-33 and 37-41) published on Jun. 24, 1993, the specification of which is also incorporated herein by reference. A description of the holoreceptor transactivation assay is also provided below.
(§2) CV1 cells (5,000 cells/well) were transfected with an RAR reporter plasmid MTV-TREp-LUC (50 ng) along with one of the […] expression vectors (10 ng) in an automated 96-well format by the calcium phosphate procedure of Heyman et al. Cell 68, 397-406. (8). For RXRα and RXR.GAMMA. transactivation assays, an RXR-responsive reporter plasmid CRBPII-tk-LUC (50 ng) along with the appropriate RXRexpression vectors (10 ng) was used substantially as described by Heyman et al. above, and Allegretto et al. J. Biol. Chem. 268, 26625-26633. For RXRβ transactivation assays, an RXR-responsive reporter plasmid CPRE-tk-LUC ([…]) along with RXRβ expression vector ([…]) was used as described in above. These reporters contain DRI elements from human CRBPII and certain DRI elements from promoter, respectively. (see Mangelsdorf et al. The Retinoids: Biology, Chemistry and Medicine, pp 319-349, Raven Press Ltd., New York and Heyman et al., cited above) (1, 8). A β-galactosidase (50 ng) expression vector was used as an internal control in the transfections to normalize for variations in transfection efficiency. The cells were transfected in triplicate for 6 hours, followed by incubation with retinoids for 36 hours, and the extracts were assayed for luciferase and β-galactosidase activities. The detailed experimental procedure for holoreceptor transactivations has been described in Heyman et al. above, and Allegretto et al. cited above. The results obtained in this assay in connection with examplary compounds in accordance with the present invention are expressed in EC50 numbers, as they are also in the chimeric receptor transactivation assay. The Heyman et al. Cell 68, 397-406, Allegretto et al. J. Biol. Chem. 268, 26625-26633, and Mangelsdorf et al. The Retinoids: Biology, Chemistry and Medicine, pp 319-349, Raven Press Ltd., New York, are expressly incorporated herein by reference. The results of ligand binding assay are expressed in Kd numbers. (See Cheng et al. Biochemical Pharmacology Vol. 22 pp 3099-3108, expressly incorporated herein by reference.)

RXRα = target: T2, RXRα (Homo sapiens, UniProt P19793); assay: Ligand binding assay, RXRα
T2 construct: expressed in transfected cells; host or cells: CV1
T2 sequence (P19793 1-462): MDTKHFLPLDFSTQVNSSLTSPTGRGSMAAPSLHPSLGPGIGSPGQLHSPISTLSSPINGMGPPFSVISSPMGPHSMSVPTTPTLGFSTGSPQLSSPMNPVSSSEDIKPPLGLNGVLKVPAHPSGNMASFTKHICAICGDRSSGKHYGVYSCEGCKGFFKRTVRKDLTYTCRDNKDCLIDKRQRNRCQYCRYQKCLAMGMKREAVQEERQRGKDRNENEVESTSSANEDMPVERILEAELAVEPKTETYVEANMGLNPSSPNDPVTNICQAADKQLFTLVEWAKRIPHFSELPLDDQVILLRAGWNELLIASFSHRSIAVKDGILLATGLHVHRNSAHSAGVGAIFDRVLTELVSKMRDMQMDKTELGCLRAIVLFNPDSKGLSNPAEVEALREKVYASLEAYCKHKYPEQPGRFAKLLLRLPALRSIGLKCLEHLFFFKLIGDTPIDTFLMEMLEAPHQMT
From the text: as §1, §2

RARβ = target: T3, RARβ (Homo sapiens, UniProt P10826); assay: Holoreceptor transactivation assay, RARβ; format: cell-based; conditions: CV-1; CV1 cells; relative to all trans retinoic acid; read-out: Transactivation Assay Efficacy (% of RA activity), RARβ
T3 construct: expressed in transfected cells; host or cells: CV1
T3 sequence (P10826 1-448 isoform P10826-2): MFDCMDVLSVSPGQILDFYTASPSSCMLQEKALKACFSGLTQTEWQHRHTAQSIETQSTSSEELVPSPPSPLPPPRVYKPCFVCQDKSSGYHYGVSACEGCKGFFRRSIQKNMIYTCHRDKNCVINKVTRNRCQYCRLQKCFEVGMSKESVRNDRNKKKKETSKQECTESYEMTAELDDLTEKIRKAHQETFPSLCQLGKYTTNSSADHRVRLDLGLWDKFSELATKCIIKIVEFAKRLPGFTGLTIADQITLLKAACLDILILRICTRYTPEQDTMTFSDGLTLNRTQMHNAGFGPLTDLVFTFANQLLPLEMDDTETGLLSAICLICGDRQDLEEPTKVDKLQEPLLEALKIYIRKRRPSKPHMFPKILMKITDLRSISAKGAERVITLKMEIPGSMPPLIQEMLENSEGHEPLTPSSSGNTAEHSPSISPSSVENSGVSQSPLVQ
From the text: as §1, §2

RARα = target: T4, RARα (Homo sapiens, UniProt P10276); assay: Ligand binding assay, RARα
T4 construct: expressed in transfected cells; host or cells: CV1
T4 sequence (P10276 1-462): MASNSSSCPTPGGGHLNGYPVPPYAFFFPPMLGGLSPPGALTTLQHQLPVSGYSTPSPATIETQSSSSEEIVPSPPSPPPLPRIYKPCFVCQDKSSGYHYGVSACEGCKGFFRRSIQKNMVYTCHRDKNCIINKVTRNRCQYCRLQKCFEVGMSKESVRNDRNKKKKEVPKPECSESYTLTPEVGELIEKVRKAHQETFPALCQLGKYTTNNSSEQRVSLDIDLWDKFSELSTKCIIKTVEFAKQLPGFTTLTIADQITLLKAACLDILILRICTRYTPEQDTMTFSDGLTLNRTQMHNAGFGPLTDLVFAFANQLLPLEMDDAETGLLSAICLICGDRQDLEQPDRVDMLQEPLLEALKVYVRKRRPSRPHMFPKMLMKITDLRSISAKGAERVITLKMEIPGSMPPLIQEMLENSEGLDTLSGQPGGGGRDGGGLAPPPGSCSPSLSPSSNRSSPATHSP
From the text: as §1, §2

Row | Compound | Kd (RXRγ) | Kd (RXRα) | Emax (RARβ) | Kd (RARα)
1 | Cc1cc2c(cc1Sc1ncc(C(=O)O)s1)C(C)(C)CCC2(C)C [Compound 15, 2-(5,6,7,8-Tetrahydro-3,5,5,8,8-pentamethyl-2-naphthylthio)-5-thiazolecarboxylic acid] | > 1000 nM | > 1000 nM | 0% | > 1000 nM
2 | Cc1cc2c(cc1Sc1ccc(C(=O)O)cc1)C(C)(C)CCC2(C)C [Compound 7, 4-(5,6,7,8-tetrahydro-3,5,5,8,8-pentamethyl-2-Daphthylthio)benzoic acid] | 304 nM | 296 nM | 4% | > 1000 nM
3 | CC1(C)CCC(C)(C)c2cc(Sc3ccc(C(=O)O)cc3)ccc21 [Compound 2] |  | > 1000 nM | 66% | > 1000 nM
4 | Cc1cc2c(cc1[S+]([O-])c1ccc(C(=O)O)cc1)C(C)(C)CCC2(C)C (stereo not drawn) [Compound 9, 4-(5,6,7,8-tetrahydro-3,5,5,8,8-pentamethyl-2-naphthylsulfoxy)benzoic acid] | > 1000 nM | > 1000 nM | 4% | > 1000 nM
5 | Cc1cc2c(cc1S(=O)(=O)c1ccc(C(=O)O)cc1)C(C)(C)CCC2(C)C [Compound 11, 4-(5,6,7,8-tetrahydro-3,5,5,8,8-pentamethyl-2-naphthylsulfonyl)benzoic acid] | > 1000 nM | > 1000 nM | 6% | > 1000 nM
6 | Cc1cc2c(cc1Sc1ccc(C(=O)O)cn1)C(C)(C)CCC2(C)C [Compound 13] | 73 nM | 32 nM | 4% | > 10000 nM
7 | CC1(C)CCC(C)(C)c2cc(S(=O)(=O)c3ccc(C(=O)O)cc3)ccc21 [Compound 5, 4-(5,6,7,8-tetrahydro-5,5,8,8-tetramethyl-2-naphthylsulfonyl)benzoic acid] | > 1000 nM | > 1000 nM | 4% | > 1000 nM
